The results in this text go back to patent US4761414A, “Substituted 1H-pyrimido[1,2-a-]-pyrido[3,4-e]pyrazine 6 oxides” (G. D. Searle & Co., priority 1986, dated 1988).

Each structure is given as a SMILES string. Values after ≈ are worked out from the molar mass of the structure shown.

Assay [1] deals with Clostridium perfringens NCTC 8237. As to the kind of experiment: microbe, parasite or virus in culture. The format is cell-based. The following applies: Clostridium perfringens, NCTC8237, Clostridium perfringens NCTC 8237; procedures of Example 40.
The subject of assay [2] is Propionebacterium acnes NCTC 737. In words: MIC vs panel of anaerobes. The format is cell-based. The note with it: procedures of Example 40.
Assay [3] has as its system B. fragilis NCTC 10581. As to the kind of experiment: MIC/MBC against Bacteroides fragilis strain A (96-well microtitre plates, anaerobic chamber). It is filed as cell-based. The note with it: Bacteroides fragilis; for MBC: NCTC10581, 99.9% reduction in viable count; for MIC: NCTC10581, 48 h, 48 hours, 37° C., anaerobic. The protocol: (§1) The screening panel utilized in this Example consisted of 5 strains of Bacteroides fragilis. All assays were carried out in 96-well microtitre plates. If an isolate was obtained from either a culture collection or clinical source, the isolate was immediately inoculated into Wilkens-Chalgren broth (Oxoid) and incubated at 37° C. in an anaerobic chamber in an atmosphere of 85% nitrogen, 10% carbon dioxide, and 5% hydrogen for 48 hours. At the end of this time, the viable count was about 10^12 organisms/ml broth. A 1 ml aliquot of each culture was placed in an ampoule and quick frozen in acetone-dry ice mixture and stored in liquid nitrogen. When an inoculum was utilized in an assay, one of the ampoules was thawed and diluted with fresh broth to yield a suspension having a count of 5×10^5 organisms/ml. A 100 μl aliquot of this suspension was inoculated into each well of the microtitre plate. A 2 mg sample of the test compound was dissolved in 0.2 ml of a suitable solvent such as dimethylsulfoxide, polyethylene glycol 200 or methanol. […] After addition of the test solution the final inoculum level was 10^5 cells/ml. The plates were incubated for 48 hours at 37° C. in the anaerobic chamber. The Minimum Inhibitory Concentration (MIC) was read visually. The MIC is defined as the lowest concentration at which there is no detectable growth. The Minimum Bactericidal Concentration (MBC) was determined by taking 50 μl aliquot from each well and placing it in fresh medium. […] The strains of Bacteroides fragilis utilized in the above procedure are identified by letter in accordance with the following legend: |A B. fragilis NCTC 10581

Assay [4] has as its system Campylobacter fetus ss. jejuni NCTC 10842. In words: MIC vs panel of anaerobes. The format is cell-based. The following applies: NCTC10842, procedures of Example 40.
For assay [5], the system named is B. fragilis WS-1. As to the kind of experiment: MIC/MBC against Bacteroides fragilis strain E. The format is cell-based. The following applies: for MBC: WS1, 99.9% reduction in viable count; for MIC: WS1, 48 h, 48 hours, 37° C., anaerobic. The protocol: as §1, with “|E” for “|A”, “WS-1*” for “NCTC 10581”
In assay [6] the test system is Fusobacterium necrophorum ATCC 11295. As to the kind of experiment: MIC vs panel of anaerobes. The format is cell-based. The following applies: Fusobacterium necrophorum, ATCC11295, Fusobacterium necrophorum ATCC 11295; procedures of Example 40; read-out: MIC.
The subject of assay [7] is B. fragilis NCTC 9343. As to the kind of experiment: MIC/MBC against Bacteroides fragilis strain B. It is filed as cell-based. The note with it: for MBC: NCTC9343, 99.9% reduction in viable count; for MIC: NCTC9343, 48 h, 48 hours, 37° C., anaerobic. The protocol: as §1, with “|B” for “|A”, “9343” for “10581”
Assay [8] concerns Costridium difficile NCIB 10666. In words: MIC vs panel of anaerobes. The note with it: Clostridioides difficile, NCIB10666, C. difficile NCIB 10666; procedures of Example 40; read-out: MIC. The format is cell-based, C. difficile.

What is called MBC is the lowest tested concentration that kills the bacteria rather than only halting them. For the molecule `CC1(C)CN=C2C(c3ccccc3)=[N+]([O-])c3ccncc3N2C1` [Example 14, 2,3-Dihydro-2,2-dimethyl-5-phenyl-1H-pyrimido[1,2-a]pyrido[4,3-e]pyrazine 6-oxide], the MIC in assay [1] is 25 µg/mL (≈ 81.6 µM); in assay [2], over 100 µg/mL; in assay [3], 6.2 µg/mL (≈ 20.2 µM); in assay [4], 50 µg/mL (≈ 163 µM); in assay [5], 3.1 µg/mL (≈ 10.1 µM); in assay [6] it was 25 µg/mL (≈ 81.6 µM). Moreover, the MIC in assay [7] worked out at 3.1 µg/mL (≈ 10.1 µM); in assay [8], 1.5 µg/mL (≈ 4.9 µM). The MBC in assay [3] was found to be 12.5 µg/mL (≈ 40.8 µM); in assay [5], 3.1 µg/mL (≈ 10.1 µM); in assay [7], 6.2 µg/mL (≈ 20.2 µM).

Turning to `[O-][N+]1=C(c2ccccc2)C2=NCC3(CCCCC3)CN2c2ccncc21` [Example 30, Spiro[cyclohexane-1,2'-[2,3]-dihydro-[5]-phenyl-[1H]pyrimido[1,2-a]pyrido[3,4-e]pyrazine [6]-oxide]], the MIC is 12.5 µg/mL (≈ 36.1 µM) in assay [1]; over 100 µg/mL in assay [2]; under 0.8 µg/mL in assay [3]; 100 µg/mL (≈ 289 µM) in assay [4]; under 0.8 µg/mL in assay [5]; 3.1 µg/mL (≈ 8.95 µM) in assay [6]. The MIC in assay [7] and in assay [8] was under 0.8 µg/mL each time. The MBC was under 0.8 µg/mL in assay [3], under 0.8 µg/mL in assay [5] and 1.5 µg/mL (≈ 4.33 µM) in assay [7].

Regarding `CC1(C)CN=C2C(c3ccc(Cl)cc3)=[N+]([O-])c3cnccc3N2C1` [Example 17, 2,3-Dihydro-5-(4-chlorophenyl)-2,2-dimethyl-1H-pyrimido[1,2-a]pyrido[3,4-e]pyrazine 6-oxide], the MIC in assay [1] is 6.2 µg/mL (≈ 18.2 µM); in assay [2], over 100 µg/mL; in assay [3] it was under 0.8 µg/mL; in assay [4], 50 µg/mL (≈ 147 µM); in assay [5], under 0.8 µg/mL; in assay [6], 3.1 µg/mL (≈ 9.1 µM). In addition, the results for the MIC in assay [7] and in assay [8] were 1.5 µg/mL (≈ 4.4 µM) and under 0.8 µg/mL, respectively. Also, the MBC in assay [3] was under 0.8 µg/mL; in assay [5] it was under 0.8 µg/mL; in assay [7], 1.5 µg/mL (≈ 4.4 µM).

In the case of `Cc1ccc(C2=[N+]([O-])c3cccnc3N3CC(C)(C)CN=C23)cc1` [Example 20, 2,3-Dihydro-2,2-dimethyl-5-(4-methylphenyl)-1H-pyrimido[1,2-a]pyrido[3,2-e]pyrazine 6-oxide], the MIC in assay [1] is 1.5 µg/mL (≈ 4.68 µM); in assay [2] it was over 100 µg/mL; in assay [3] it was under 0.8 µg/mL; in assay [4] it was 6.2 µg/mL (≈ 19.4 µM); in assay [5], 1.5 µg/mL (≈ 4.68 µM); in assay [6] it was 1.5 µg/mL (≈ 4.68 µM). Besides, the MIC in assay [7] is 6.2 µg/mL (≈ 19.4 µM); in assay [8], under 0.8 µg/mL. For the same molecule, the MBC in assay [3] is under 0.8 µg/mL; in assay [5], under 0.8 µg/mL; in assay [7], 6.2 µg/mL (≈ 19.4 µM).

For the molecule `CCC1(CC)CN=C2C(c3ccccc3)=[N+]([O-])c3cnccc3N2C1` [Example 25, 2,3-Dihydro-2,2-diethyl-5-phenyl-1H-pyrimido[1,2-a]pyrido[3,4-e]pyrazine 6-oxide], the MIC in assay [1] was 3.1 µg/mL (≈ 9.27 µM); in assay [2], over 100 µg/mL; in assay [3], 1.5 µg/mL (≈ 4.49 µM); in assay [4] it was 6.2 µg/mL (≈ 18.5 µM); in assay [5], under 0.8 µg/mL; in assay [6], 31 µg/mL (≈ 92.7 µM). The MIC in assay [7] and in assay [8] was 1.5 µg/mL (≈ 4.49 µM) in each case. For the same molecule, the MBC was 3.1 µg/mL (≈ 9.27 µM) in assay [3], under 0.8 µg/mL in assay [5] and 1.5 µg/mL (≈ 4.49 µM) in assay [7].

Regarding `CC1(C)CN=C2C(c3ccc(F)cc3)=[N+]([O-])c3cccnc3N2C1` [Example 31, 2,3-Dihydro-2,2-dimethyl-5-(4-fluorophenyl)-1H-pyrimido[1,2-a]pyrido[3,2-e]pyrazine 6-oxide], the MIC in assay [1] is 12.5 µg/mL (≈ 38.5 µM); in assay [2], over 100 µg/mL; in assay [3] it was under 0.8 µg/mL; in assay [4], 50 µg/mL (≈ 154 µM); in assay [5], under 0.8 µg/mL; in assay [6] it was 3.1 µg/mL (≈ 9.56 µM). The MIC in assay [7] and in assay [8] was under 0.8 µg/mL each time. The MBC in assay [3], in assay [5] and in assay [7] was under 0.8 µg/mL in each case.

With `COc1ccc(C2=[N+]([O-])c3cccnc3N3CC(C)(C)CN=C23)cc1OC` [Example 22, 2,3-Dihydro-5-(3,4-dimethoxyphenyl)-2,2-dimethyl-1H-pyrimido[1,2-a]pyrido[3,2-e]pyrazine 6-oxide], the MIC in assay [1] is 6.2 µg/mL (≈ 16.9 µM); in assay [2], over 100 µg/mL; in assay [3], 1.5 µg/mL (≈ 4.09 µM); in assay [4] it was 50 µg/mL (≈ 136 µM); in assay [5], under 0.8 µg/mL; in assay [6] it was under 0.8 µg/mL. Besides, the MIC in assay [7] and in assay [8] was under 0.8 µg/mL throughout. Also, the MBC in assay [3] was 1.5 µg/mL (≈ 4.09 µM); in assay [5], under 0.8 µg/mL; in assay [7], under 0.8 µg/mL.

Turning to `CCC1(C)CN=C2C(c3ccccc3)=[N+]([O-])c3cnccc3N2C1` (stereo not drawn) [Example 23, 2,3-Dihydro-2-ethyl-2-methyl-5-phenyl-1H-pyrimido[1,2-a]pyrido[3,4-e]pyrazine 6-oxide], the MIC in assay [1] was 6.2 µg/mL (≈ 19.4 µM); in assay [2] it was over 100 µg/mL; in assay [3], 1.5 µg/mL (≈ 4.68 µM); in assay [4], 100 µg/mL (≈ 312 µM); in assay [5] it was 1.5 µg/mL (≈ 4.68 µM); in assay [6] it was under 0.8 µg/mL. Besides, the MIC was under 0.8 µg/mL in assay [7] and 1.5 µg/mL (≈ 4.68 µM) in assay [8]. Moreover, the figures for the minimum bactericidal concentration (MBC) in assay [3], in assay [5] and in assay [7] were 1.5 µg/mL (≈ 4.68 µM), 3.1 µg/mL (≈ 9.68 µM) and under 0.8 µg/mL, respectively.

In the case of `CCC1(CC)CN=C2C(c3ccccc3)=[N+]([O-])c3cccnc3N2C1` [Example 26, 2,3-Dihydro-2,2-diethyl-5-phenyl-1H-pyrimido[1,2-a]pyrido[3,2-e]pyrazine 6-oxide], the MIC in assay [1] is 1.5 µg/mL (≈ 4.49 µM); in assay [2] it was 100 µg/mL (≈ 299 µM); in assay [3], under 0.8 µg/mL; in assay [4], 25 µg/mL (≈ 74.8 µM); in assay [5], under 0.8 µg/mL; in assay [6], 1.5 µg/mL (≈ 4.49 µM). The results for the MIC in assay [7] and in assay [8] were 1.5 µg/mL (≈ 4.49 µM) and under 0.8 µg/mL, respectively. Besides, the MBC in assay [3] was under 0.8 µg/mL; in assay [5] it was under 0.8 µg/mL; in assay [7] it was 1.5 µg/mL (≈ 4.49 µM).
